Measurements published in the supplement of paper PMC5412046.
Structures can show the parent of a compound that is named as a salt.

How the values were obtained:
SB.mhdgc-1 [1] = experiment: viability at highest tested concentration (MAXR) relative to DMSO; higher = less cytotoxic; details: SB.mhdgc-1 (hereditary c.1380delA CDH1 gastric cancer)
Procedure, shortened: (§1)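 Viability values are normalised to DMSO and given either at the highest concentration or as trapezoidal area under the curve. The assay used 500 hereditary or sporadic patient-derived gastric cancer cells in 5 μL medium per 1536 well, dosed by pintool with 23 nL of compound in DMSO at 11 threefold-diluted concentrations. CellTiter-Glo was added 48 h later for 30 min at room temperature, followed by luminescence reading on a ViewLux.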

SB.msgc-1 [2] = experiment: as above; details: SB.msgc-1 (sporadic gastric cancer)
Procedure, shortened: as §1

SB.mhdgc-1 [3] = experiment: area under the dose-response curve of % viability (trapezoidal, 11 doses) (% viability x log10 concentration); higher = less cytotoxic; details: SB.mhdgc-1 (hereditary c.1380delA CDH1 gastric cancer)
Procedure, shortened: as §1

SB.msgc-1 [4] = experiment: as above; details: SB.msgc-1 (sporadic gastric cancer)
Procedure, shortened: as §1

SMILES | viability (SB.mhdgc-1 [1]) | viability (SB.msgc-1 [2]) | area under the dose-response curve (SB.mhdgc-1 [3]) | area under the dose-response curve (SB.msgc-1 [4])
CN1CCc2c(c3ccccc3n2Cc2ccc(C(=O)NO)cc2)C1 [Tubastatin A] (top concentration 46.0829 µM) | 1.43% | 3.16% | 384 | 430
CC(C)OC(=O)/C1=C/N(CC(C)(C)C2=C1[NH]C3=CC=CC=C23)C(=O)C4=CC=C(F)C(=C4)F [Turofexorate isopropyl] (top concentration 46.0829 µM) | 95.8% | 62.3% | 430 | 351
N#C/C(=C\c1ccc(O)c(O)c1)C(=O)NCc1ccccc1 [Tyrphostin B42] (top concentration 46.0829 µM) | 62.8% | 75% | 584 | 531
N#CC(=C(/N)Sc1ccccc1N)/C(C#N)=C(\N)Sc1ccccc1N [U-0126] (top concentration 46.0829 µM) | 23.4% | 63.9% | 369 | 525
O=C(c1cncc(Br)c1)N1CCC(N2CCCC2)CC1 [UNC669] (top concentration 46.0829 µM) | 121% | 106% | 563 | 516
O=C(c1ccc(C(=O)N2CCC(N3CCCC3)CC2)c(Nc2ccccc2)c1)N1CCC(N2CCCC2)CC1 [UNC1215] (top concentration 46.0829 µM) | 154% | 111% | 589 | 525
COc1cc2c(NC3CCN(C(C)C)CC3)nc(C3CCCCC3)nc2cc1OCCCN1CCCC1 [UNC-0638] (top concentration 46.0829 µM) | 4.01% | 12.3% | 368 | 435
CC(C)C[C@H](NC(=O)[C@@H](O)[C@H](N)Cc1ccccc1)C(=O)O [Ubenimex] (top concentration 46.0829 µM) | 19.7% | 88.5% | 528 | 602
CC(=O)OC[C@@H]1O[C@H]([C@H](OC(C)=O)[C@@H]1OC(C)=O)N2\C=C/C(=O)NC2=O [Uridine triacetate] (top concentration 46.0829 µM) | 104% | 112% | 572 | 524
OC[C@H]1O[C@H]([C@H](O)[C@@H]1O)N2\C=C/C(=O)NC2=O [Uridine] (top concentration 46.0829 µM) | 105% | 115% | 521 | 568
C[C@H](CCC(=O)O)[C@H]1CC[C@H]2[C@@H]3[C@@H](O)C[C@@H]4C[C@H](O)CC[C@]4(C)[C@H]3CC[C@]12C [Ursodiol] (top concentration 46.0829 µM) | 121% | 84.4% | 491 | 541
C[C@@H]1CC[C@@]2(CC[C@]3(C)\C(=C/C[C@@H]4[C@@]5(C)CC[C@H](O)C(C)(C)[C@@H]5CC[C@@]34C)[C@@H]2[C@H]1C)C(O)=O [Ursolic acid] (top concentration 92.1659 µM) | 3.71% | 4.45% | 478 | 495
COC1CCC(CC1)N(C(=O)C2CCC(C)CC2)C3=C(SC(=C3)\C4=C\CCCC4)C(O)=O (centres undefined) [VCH-916] (top concentration 46.0829 µM) | 99.5% | 70.1% | 482 | 501
C[S+](=O)([O-])c1ccc(-c2cnc(N)c(C(=O)Nc3ccccc3)n2)cc1 [VE-821] (top concentration 46.0829 µM) | 79.9% | 69.5% | 477 | 504
NC(=O)c1ccc(N(C(N)=O)c2c(F)cccc2F)nc1-c1ccc(F)cc1F [VX-702] (top concentration 46.0829 µM) | 55.7% | 89.3% | 498 | 489
FC1=CC=C(SC/2=N/N3\C=N/C(=O)/C(=C3/C=C2)C4=C(Cl)C=CC=C4Cl)C(=C1)F [VX-745] (top concentration 46.0829 µM) | 33.6% | 62% | 542 | 495
CCOC1OC(=O)C[C@@H]1NC(=O)[C@@H]1CCCN1C(=O)[C@@H](NC(=O)c1ccc(N)c(Cl)c1)C(C)(C)C (some centres undefined) [VX-765] (top concentration 46.0829 µM) | 94.2% | 117% | 531 | 580
Cc1ccc2c(=O)c3cccc(CC(=O)O)c3oc2c1C [Vadimezan] (top concentration 46.0829 µM) | 36.3% | 81.5% | 461 | 498
CC(C)[C@H](N)C(=O)OCCOC[N]1C=NC2=C1\N=C(N)/NC2=O [Valaciclovir] (top concentration 46.0829 µM) | 110% | 94.6% | 528 | 508
CCCC(CCC)C(=O)[O-] [Valproic acid sodium salt] (top concentration 46.0829 µM) | 47.7% | 46.3% | 425 | 505
C/C=C/C[C@@H](C)C(=O)[C@H]1C(=O)N[C@@H](C(C)C)C(=O)N(C)CC(=O)N(C)[C@@H](CC(C)C)C(=O)N[C@@H](C(C)C)C(=O)N(C)[C@@H](CC(C)C)C(=O)N[C@@H](C)C(=O)N[C@H](C)C(=O)N(C)[C@@H](CC(C)C)C(=O)N(C)[C@@H](CC(C)C)C(=O)N(C)[C@@H](C(C)C)C(=O)N1C [Valspodar] (top concentration 46.0829 µM) | 37.4% | 35.1% | 393 | 475

SMILES | viability (SB.mhdgc-1 [1]) | viability (SB.msgc-1 [2]) | area under the dose-response curve (SB.mhdgc-1 [3]) | area under the dose-response curve (SB.msgc-1 [4])
CN[C@H](CC(C)C)C(=O)N[C@H]1C(=O)N[C@@H](CC(N)=O)C(=O)N[C@H]2C(=O)N[C@H]3C(=O)N[C@H](C(=O)N[C@H](C(=O)O)c4cc(O)cc(O)c4-c4cc3ccc4O)[C@H](O)c3ccc(c(Cl)c3)Oc3cc2cc(c3O[C@@H]2O[C@H](CO)[C@@H](O)[C@H](O)[C@H]2O[C@H]2C[C@](C)(N)[C@H](O)[C@H](C)O2)Oc2ccc(cc2Cl)[C@H]1O [Vancomycin hydrochloride] (top concentration 46.0829 µM) | 73.2% | 99.9% | 503 | 521
COc1cc2c(Nc3ccc(Br)cc3F)ncnc2cc1OCC1CCN(C)CC1 [Vandetanib] (top concentration 46.0829 µM) | 3.39% | 34% | 410 | 456
Cl.Cl.Fc1ccc(C(OCCN2CCN(CCCc3ccccc3)CC2)c2ccc(F)cc2)cc1 [Vanoxeamine] (top concentration 46.0829 µM) | 2.93% | 39.6% | 416 | 489
O=C(O)CC/C=C\CC[C@@H]1[C@@H](N2CCCCC2)[C@@H](O)C[C@@H]1OCc1ccc(-c2ccccc2)cc1 [Vapiprost hydrochloride] (top concentration 46.0829 µM) | 79.6% | 106% | 560 | 539
CCCC1=NC(=C2[N]1NC(=N\C2=O)/C3=CC(=CC=C3OCC)[S+]([O-])(=O)N4CCN(CC)CC4)C [Vardenafil] (top concentration 46.0829 µM) | 29.8% | 7.86% | 504 | 437
Cl.c1cnc2cc3c(cc2n1)C1CNCC3C1 [Varenicline tartrate] (top concentration 46.0829 µM) | 84.2% | 93.8% | 551 | 529
CCc1c(C(=O)C(N)=O)c2c(OCC(=O)O)cccc2n1Cc1ccccc1 [Varespladib] (top concentration 46.0829 µM) | 49.9% | 55.3% | 543 | 523
COC(=O)c1ccc2c(c1)NC(=O)/C2=C(\Nc1ccc(N(C)C(=O)CN2CCN(C)CC2)cc1)c1ccccc1 [Vargatef] (top concentration 46.0829 µM) | 1.22% | 6.94% | 418 | 409
C[C@@H]\1COC(=N1)\NC2=CC3=C(C=C2)N=CN=C3NC4=CC(=C(OCC5=NC=CS5)C=C4)Cl [Varlitinib tosylate] (top concentration 46.0829 µM) | 2.8% | 10.8% | 354 | 272
Cl.Cl.Clc1ccc(Nc2nnc(Cc3ccncc3)c3ccccc23)cc1 [Vatalanib] (top concentration 46.0829 µM) | 32.5% | 53.2% | 417 | 481
CC(=O)O[C@H]1C[C@@H]2CC[C@@H]3[C@H](CC[C@@]4(C)[C@H]3C[C@H]([N+]3(C)CCCCC3)[C@@H]4OC(C)=O)[C@@]2(C)C[C@@H]1N1CCCCC1 [Vecuronium bromide] (top concentration 46.0829 µM) | 49.1% | 66% | 492 | 526
O=C(O)[C@@H](c1ccc(OCc2ccc3ccccc3n2)cc1)C1CCCC1 [Veliflapon] (top concentration 46.0829 µM) | 97.1% | 82.7% | 536 | 523
C[C@]1(c2nc3c(C(N)=O)cccc3[nH]2)CCCN1 [Veliparib] (top concentration 46.0829 µM) | 54.2% | 69.4% | 404 | 447
CCC[S+](=O)([O-])Nc1ccc(F)c(C(=O)c2c[nH]c3ncc(-c4ccc(Cl)cc4)cc23)c1F [Vemurafenib] (top concentration 46.0829 µM) | 52.4% | 38% | 507 | 537
COc1ccc(C(CN(C)C)C2(O)CCCCC2)cc1 (centres undefined) [Venlafaxine hydrochloride] (top concentration 46.0829 µM) | 90.6% | 81.9% | 519 | 516
COC(=O)CCC1=C(C)C2=CC3=NC(=CC4=C(C)C(=C([NH]4)C=C\5N=C(C=C1[NH]2)\C(=C5C)CCC(O)=O)C=C)\C6=C\C=C(/[C@@H](C(=O)OC)[C@@]36C)C(=O)OC [Verteporfin] (top concentration 46.0829 µM) | 37.4% | 4.28% | 418 | 315
COC[C@H](c1ccc(C(F)(F)F)cc1)N1CCN(C2(C)CCN(C(=O)c3c(C)ncnc3C)CC2)C[C@H]1C.O=C(O)/C=C\C(=O)O [Vicriviroc] (top concentration 46.0829 µM) | 4.76% | 4.65% | 423 | 507
Nc1ncnc2c1ncn2[C@@H]1O[C@@H](CO)[C@H](O)[C@@H]1O [Vidarabine] (top concentration 34.4879 µM) | 89.7% | 109% | 552 | 586
COC1=CC(=CC=C1)C2=CC=C(NC(=O)/C3=C(/CCC3)C(O)=O)C(=C2)F [Vidofludimus] (top concentration 46.0829 µM) | 40.8% | 44.9% | 445 | 485
CC[C@]1(O)C[C@H]2CN(CCC3=C([NH]C4=C3C=CC=C4)[C@@](C2)(C(=O)OC)C5=CC6=C(C=C5OC)N(C=O)[C@H]7[C@](O)([C@H](OC(C)=O)[C@]8(CC)\C=C/C[N@@]9CC[C@]67[C@H]89)C(=O)OC)C1 [Vincristine sulfate] (top concentration 46.0829 µM) | 33.5% | 36.7% | 260 | 251
